{"source": "patent US20160143862A1", "about": "“METHOD OF USING BETA-IONONE TO TREAT AND PREVENT DISEASE INDUCED BY PROPIONIBACTERIUM ACNES” (NATIONAL TAIWAN NORMAL UNIVERSTITY, priority 2014, published 2016)", "key": {"[1]": {"tested_on": "P. acnes-induced IL-8 production by THP-1 cells", "assay": "inhibition of P. acnes-induced IL-8 production by THP-1 cells (enzyme immunoassay)", "type": "cell-based, Human", "settings": "10, 20, 50 μM; P. acnes MOI 75; 24-h incubation; p<0.001", "experimental": "Propionibacterium acnes (BCRC 10723, purchased from the Bioresource Collection and Research Center, Hsinchu, Taiwan) was cultured in a brain heart infusion (BHI) broth. The bacteria were cultured in an anaerobic atmosphere using BBL GasPak systems."}, "[2]": {"tested_on": "Propionibacterium acnes-induced ear swelling in ICR mice", "assay": "P. acnes-induced mouse ear inflammation (ear thickness, biopsy weight, redness, neutrophil infiltration)", "type": "in vivo", "from_the_text": "In the animal experiment of this embodiment, four-week-old male […] were purchased from the Experimental Animal Center of the National Taiwan University. After 1 week of adaptation, the mice were randomly divided into three groups of six animals each. The three groups of mice are, namely a blank control group of mice injected with a phosphate buffer solution (hereinafter referred to as “PBS-control”), an experimental group of mice injected with Propionibacterium acnes (hereinafter referred to as “P. acnes group”), and an experimental group of mice injected with Propionibacterium acnes and beta-ionone (hereinafter referred to as “P. acnes+beta-ionone group”). Mice were housed in plastic cages, under standard temperature-controlled conditions with a 12 h/12 h light-dark cycle and free access to food and water throughout the experiments. The experiments are each carried out by following the steps described below, so as to inject 10 µL of liquid (phosphate buffer solution (PBS), P. acnes, or P. acnes+beta-ionone) into the mice' ears, respectively. […] Mercy killing is carried out to all the mice 24 hours after the aforesaid injections, and then the ear's swelling induced by P. acnes was quantified as the percentage increases in the thickness and weight of the left ear biopsy. The thickness of the mice's ears is measured with a micrometer caliper. […]"}, "[3]": {"tested_on": "human monocytic THP-1 cells", "assay": "cytotoxicity of beta-ionone on THP-1 cells (cellular viability)", "procedure": "Human monocytic THP-1 cells (BCRC 60430, purchased from the Bioresource Collection and Research Center, Hsinchu, Taiwan) were cultured in RPMI 1640 medium and supplemented with 10% of fetal bovine serum, 0.05 mM of 2-mercaptoethanol, and 100 units/mL of penicillin G sodium, 100 μg/mL of streptomycin sulfate, and 250 ng/mL of amphotericin B at 37° C. in a 5% CO2 humidified environment.\nTHP-1 cells are seeded at 2×10^5 cells/well in a 96-well plate with FBS-free RMPI 1640 medium, and are stimulated with Propionibacterium acnes (multiplicity of infection=75) alone or in combination with various concentrations of 10, 20, 50 μM of beta-ionone for a 24-h incubation."}}, "data": [{"smiles": "CC(=O)/C=C/C1=C(C)CCCC1(C)C", "note": "[beta-ionone, (3E)-4-(2,6,6-trimethylcyclohex-1-en-1-yl)but-3-en-2-one]", "values": [{"measurement": "inhibitory effect on P. acnes-induced IL-8 production by THP-1 cells", "setting": "[1]", "result": "marked inhibitive effect"}, {"measurement": "effect on redness, neutrophils infiltration and swelling (ear thickness and biopsy weight) caused by P. acnes", "setting": "[2]; 50 μg/10 μL injected into ear with 6×10^7 CFU P. acnes, 24 hours, p<0.01, p<0.001", "result": "effective in reducing the redness, neutrophils infiltration, and swelling"}, {"measurement": "redness and swelling of right ears (P. acnes + beta-ionone) versus left ears (P. acnes)", "setting": "[2]; 50 μg/10 μL injected into ear, 24 hours after injection, FIG. 9", "result": "significantly abated redness and swelling"}, {"measurement": "cytotoxic effect on human monocytic THP-1 cells", "setting": "[3]; beta-ionone at 10, 20, 50 μM", "result": "does not have any cytotoxic effect"}, {"measurement": "concentration with cytotoxic effect on THP-1 cells", "setting": "[3]; cellular viability compared with untreated control, p<0.05, p<0.001", "result": "≥ 100", "unit": "µM"}]}]}
